Data from paper PMC8213057, “Targeting ALK2: An Open Science Approach to Developing Therapeutics for the Treatment of Diffuse Intrinsic Pontine Glioma” (Journal of Medicinal Chemistry, 2020).
Where “and” joins values, the source holds several entries; their conditions need not be identical. Equal entries are not always repeated.

How the values were obtained:
CDK14/cyclin Y (PFTK1) = CDK14/cyclin Y (PFTK1) (Homo sapiens, UniProt O94921); details: 1 μM; Run 1, Run 2
LCK = LCK (Homo sapiens, UniProt P06239); test: biochemical; details: read-out: % enzyme activity, 1 μM; Run 1, Run 2
Chain of LCK (P06239 whole entry): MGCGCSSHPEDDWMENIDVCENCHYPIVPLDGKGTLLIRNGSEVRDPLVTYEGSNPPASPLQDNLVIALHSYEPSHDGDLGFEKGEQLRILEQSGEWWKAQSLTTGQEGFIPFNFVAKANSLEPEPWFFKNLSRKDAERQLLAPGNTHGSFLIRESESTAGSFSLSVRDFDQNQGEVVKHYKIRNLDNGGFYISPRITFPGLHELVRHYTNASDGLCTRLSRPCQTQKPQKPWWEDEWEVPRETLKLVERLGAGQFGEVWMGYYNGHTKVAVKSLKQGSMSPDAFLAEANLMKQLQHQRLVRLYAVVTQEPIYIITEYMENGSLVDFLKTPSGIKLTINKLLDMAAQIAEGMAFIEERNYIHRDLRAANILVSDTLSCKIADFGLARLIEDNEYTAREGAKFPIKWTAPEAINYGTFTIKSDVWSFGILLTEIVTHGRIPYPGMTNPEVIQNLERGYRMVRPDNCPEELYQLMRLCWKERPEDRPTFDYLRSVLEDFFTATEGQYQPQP

TLK2 = TLK2 (Homo sapiens, UniProt Q86UE8); test: biochemical; details: read-out: % enzyme activity, 1 μM; Run 1, Run 2
Chain of TLK2 (Q86UE8 whole entry): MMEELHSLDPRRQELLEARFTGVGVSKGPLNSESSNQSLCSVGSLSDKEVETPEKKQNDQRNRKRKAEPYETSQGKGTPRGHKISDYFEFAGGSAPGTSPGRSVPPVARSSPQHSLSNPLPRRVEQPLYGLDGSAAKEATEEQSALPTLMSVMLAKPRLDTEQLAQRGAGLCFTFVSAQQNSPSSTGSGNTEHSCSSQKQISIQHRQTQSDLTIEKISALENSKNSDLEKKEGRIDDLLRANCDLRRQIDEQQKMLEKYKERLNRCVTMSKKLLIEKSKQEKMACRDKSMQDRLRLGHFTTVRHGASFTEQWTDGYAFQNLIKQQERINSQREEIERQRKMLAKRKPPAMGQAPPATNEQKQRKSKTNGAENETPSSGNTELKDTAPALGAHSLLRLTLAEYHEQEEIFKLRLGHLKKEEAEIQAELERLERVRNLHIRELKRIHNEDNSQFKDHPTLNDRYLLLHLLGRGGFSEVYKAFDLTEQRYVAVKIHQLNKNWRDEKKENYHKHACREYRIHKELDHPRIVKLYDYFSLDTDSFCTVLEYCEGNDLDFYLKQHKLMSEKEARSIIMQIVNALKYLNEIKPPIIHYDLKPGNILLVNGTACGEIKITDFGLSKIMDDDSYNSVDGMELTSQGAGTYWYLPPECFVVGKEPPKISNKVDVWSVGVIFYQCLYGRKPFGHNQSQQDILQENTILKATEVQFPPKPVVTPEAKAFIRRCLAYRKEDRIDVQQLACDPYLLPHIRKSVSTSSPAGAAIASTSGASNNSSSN

DCAMKL2 = biological target: T1, DCAMKL2 (Homo sapiens, UniProt Q8N568); details: 1 μM; Run 1, Run 2
T1 sequence (Q8N568 1-766): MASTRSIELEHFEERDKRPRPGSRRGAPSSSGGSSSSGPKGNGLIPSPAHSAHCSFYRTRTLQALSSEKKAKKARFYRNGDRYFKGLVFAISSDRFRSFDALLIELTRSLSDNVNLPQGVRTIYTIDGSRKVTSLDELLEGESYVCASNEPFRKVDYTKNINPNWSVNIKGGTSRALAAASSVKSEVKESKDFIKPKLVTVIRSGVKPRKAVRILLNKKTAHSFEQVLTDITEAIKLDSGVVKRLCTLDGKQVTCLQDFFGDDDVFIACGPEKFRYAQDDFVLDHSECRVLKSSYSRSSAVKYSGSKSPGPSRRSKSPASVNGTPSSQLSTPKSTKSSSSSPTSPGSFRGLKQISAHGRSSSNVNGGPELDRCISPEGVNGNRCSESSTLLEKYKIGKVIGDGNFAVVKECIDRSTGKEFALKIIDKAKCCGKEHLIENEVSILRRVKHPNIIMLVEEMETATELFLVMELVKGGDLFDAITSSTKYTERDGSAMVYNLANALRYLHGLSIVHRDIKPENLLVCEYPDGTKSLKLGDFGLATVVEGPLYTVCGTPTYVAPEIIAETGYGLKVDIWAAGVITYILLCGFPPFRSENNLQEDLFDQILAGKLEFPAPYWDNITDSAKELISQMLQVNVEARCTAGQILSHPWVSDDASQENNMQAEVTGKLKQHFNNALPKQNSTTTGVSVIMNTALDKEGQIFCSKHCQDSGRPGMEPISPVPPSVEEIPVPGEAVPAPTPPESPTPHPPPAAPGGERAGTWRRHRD

STK38/NDR1 = STK38/NDR1 (Homo sapiens, UniProt Q15208); test: biochemical; details: read-out: % enzyme activity, 1 μM; Run 1, Run 2
Chain of STK38/NDR1 (Q15208 whole entry): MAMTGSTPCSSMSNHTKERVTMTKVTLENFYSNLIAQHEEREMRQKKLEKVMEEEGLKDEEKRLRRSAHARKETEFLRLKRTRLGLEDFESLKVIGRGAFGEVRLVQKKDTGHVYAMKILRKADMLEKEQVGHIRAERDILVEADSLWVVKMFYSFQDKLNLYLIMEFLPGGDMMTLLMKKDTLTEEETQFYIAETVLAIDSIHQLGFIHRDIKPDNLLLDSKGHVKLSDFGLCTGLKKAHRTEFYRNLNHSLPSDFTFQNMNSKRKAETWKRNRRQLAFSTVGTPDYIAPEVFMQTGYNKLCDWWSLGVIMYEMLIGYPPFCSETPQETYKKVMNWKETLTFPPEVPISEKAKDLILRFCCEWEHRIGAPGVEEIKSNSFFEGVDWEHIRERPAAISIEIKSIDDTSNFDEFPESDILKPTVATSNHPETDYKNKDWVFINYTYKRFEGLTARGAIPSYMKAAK

CAMK2a = CAMK2a (Homo sapiens, UniProt Q9UQM7); test: biochemical; details: read-out: % enzyme activity, 1 μM; Run 1, Run 2
Chain of CAMK2a (Q9UQM7 whole entry): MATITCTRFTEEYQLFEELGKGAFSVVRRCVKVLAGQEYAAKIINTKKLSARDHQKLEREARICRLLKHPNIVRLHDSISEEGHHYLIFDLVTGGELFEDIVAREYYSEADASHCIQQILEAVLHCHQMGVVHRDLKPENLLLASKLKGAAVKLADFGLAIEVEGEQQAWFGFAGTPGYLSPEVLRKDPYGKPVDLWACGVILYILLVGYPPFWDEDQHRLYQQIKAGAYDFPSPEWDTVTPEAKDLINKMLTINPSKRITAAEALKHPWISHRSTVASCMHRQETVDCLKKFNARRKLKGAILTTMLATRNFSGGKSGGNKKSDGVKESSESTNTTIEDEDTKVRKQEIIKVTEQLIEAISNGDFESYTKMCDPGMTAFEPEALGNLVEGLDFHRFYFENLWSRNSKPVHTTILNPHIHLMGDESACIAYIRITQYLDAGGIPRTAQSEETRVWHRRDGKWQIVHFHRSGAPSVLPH

ASK1/MAP3K5 = biological target: T2, ASK1/MAP3K5 (Homo sapiens, UniProt Q99683); details: 1 μM; Run 1, Run 2
T2 sequence (Q99683 1-1374): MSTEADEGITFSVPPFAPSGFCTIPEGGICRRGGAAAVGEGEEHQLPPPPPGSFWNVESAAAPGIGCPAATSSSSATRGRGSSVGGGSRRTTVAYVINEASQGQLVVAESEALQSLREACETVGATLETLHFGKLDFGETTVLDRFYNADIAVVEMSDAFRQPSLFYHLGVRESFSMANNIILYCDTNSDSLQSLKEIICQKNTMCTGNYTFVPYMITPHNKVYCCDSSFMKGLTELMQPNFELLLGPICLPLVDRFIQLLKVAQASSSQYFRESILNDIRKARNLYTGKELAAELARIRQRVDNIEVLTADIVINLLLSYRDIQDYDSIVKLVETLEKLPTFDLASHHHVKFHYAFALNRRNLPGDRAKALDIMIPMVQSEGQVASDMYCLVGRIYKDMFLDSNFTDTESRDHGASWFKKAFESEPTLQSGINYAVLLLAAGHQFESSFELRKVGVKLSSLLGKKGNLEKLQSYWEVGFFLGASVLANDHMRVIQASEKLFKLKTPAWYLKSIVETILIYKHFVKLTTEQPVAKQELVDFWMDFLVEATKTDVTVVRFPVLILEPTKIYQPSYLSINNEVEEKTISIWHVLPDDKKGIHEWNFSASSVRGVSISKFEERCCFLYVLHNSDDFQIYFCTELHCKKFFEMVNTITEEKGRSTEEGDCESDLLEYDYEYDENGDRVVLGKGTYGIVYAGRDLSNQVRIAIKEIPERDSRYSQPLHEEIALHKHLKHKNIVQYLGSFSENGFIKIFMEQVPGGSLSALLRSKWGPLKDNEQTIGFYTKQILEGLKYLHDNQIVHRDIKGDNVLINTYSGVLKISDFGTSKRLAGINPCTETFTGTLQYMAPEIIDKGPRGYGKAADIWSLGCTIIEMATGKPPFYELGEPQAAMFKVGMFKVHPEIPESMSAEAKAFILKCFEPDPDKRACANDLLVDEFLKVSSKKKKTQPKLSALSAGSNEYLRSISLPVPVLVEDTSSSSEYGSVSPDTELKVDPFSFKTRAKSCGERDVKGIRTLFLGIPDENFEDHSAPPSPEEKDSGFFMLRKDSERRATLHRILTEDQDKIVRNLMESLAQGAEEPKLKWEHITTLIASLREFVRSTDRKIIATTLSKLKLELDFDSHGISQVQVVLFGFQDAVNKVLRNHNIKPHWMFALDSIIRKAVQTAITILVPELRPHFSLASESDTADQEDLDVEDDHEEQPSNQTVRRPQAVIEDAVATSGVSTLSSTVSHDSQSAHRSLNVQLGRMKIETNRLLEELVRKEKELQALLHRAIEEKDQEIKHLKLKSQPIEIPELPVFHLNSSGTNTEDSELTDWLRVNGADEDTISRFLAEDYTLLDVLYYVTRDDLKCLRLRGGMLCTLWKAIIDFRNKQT

Chain of CDK14/cyclin Y (PFTK1) (O94921 whole entry): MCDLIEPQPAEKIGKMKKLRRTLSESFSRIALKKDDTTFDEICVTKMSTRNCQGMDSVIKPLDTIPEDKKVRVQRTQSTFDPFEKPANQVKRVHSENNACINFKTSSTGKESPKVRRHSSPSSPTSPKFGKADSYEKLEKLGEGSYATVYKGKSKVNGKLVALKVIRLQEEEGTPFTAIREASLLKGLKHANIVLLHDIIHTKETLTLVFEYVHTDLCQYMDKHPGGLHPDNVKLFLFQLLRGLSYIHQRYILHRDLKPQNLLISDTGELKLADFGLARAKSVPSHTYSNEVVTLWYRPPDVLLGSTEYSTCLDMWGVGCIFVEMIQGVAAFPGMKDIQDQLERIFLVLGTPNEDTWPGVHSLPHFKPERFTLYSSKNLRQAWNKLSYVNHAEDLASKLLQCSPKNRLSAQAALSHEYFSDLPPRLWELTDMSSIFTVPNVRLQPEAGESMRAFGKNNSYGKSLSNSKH
Chain of CDK14/cyclin Y (PFTK1) (Q8ND76 whole entry partner): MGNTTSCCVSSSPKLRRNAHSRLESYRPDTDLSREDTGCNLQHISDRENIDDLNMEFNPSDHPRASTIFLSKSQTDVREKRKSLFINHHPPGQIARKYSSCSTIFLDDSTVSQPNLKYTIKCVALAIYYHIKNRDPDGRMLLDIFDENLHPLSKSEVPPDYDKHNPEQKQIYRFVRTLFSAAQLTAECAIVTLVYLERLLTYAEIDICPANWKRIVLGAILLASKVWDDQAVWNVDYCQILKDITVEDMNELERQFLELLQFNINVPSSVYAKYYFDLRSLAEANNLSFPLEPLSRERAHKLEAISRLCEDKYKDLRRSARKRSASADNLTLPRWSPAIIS

SMILES | % enzyme activity (CDK14/cyclin Y (PFTK1)) | remaining activity at 1 µM (LCK) | % enzyme activity at 1 μM (BMPR2) | remaining activity at 1 µM (TLK2) | % enzyme activity (DCAMKL2) | remaining activity at 1 µM (STK38/NDR1) | remaining activity at 1 µM (CAMK2a) | % enzyme activity (ASK1/MAP3K5)
COc1cc(-c2cncc(-c3ccc(N4CCN(C)CC4)cc3)c2C)cc(F)c1C(N)=O [Compound 26a, 2-Fluoro-6-methoxy-4-(4-methyl-5-(4-(4-methylpiperazin-1-yl)phenyl)pyridin-3-yl)benzamide] | 98.24% | 93.2% | 89.1% and 88.4% | 96.6% | 62.07% | 91.9% | 85.5% | 94.20%
COc1cc(-c2cncc(-c3ccc(N4C[C@@H](C)N(C)[C@@H](C)C4)cc3)c2C)cc(F)c1C(N)=O [Compound 26c, 2-Fluoro-6-methoxy-4-(4-methyl-5-(4-((3R,5S)-3,4,5-trimethylpiperazin-1-yl)phenyl)pyridin-3-yl)benzamide] | 99.61% | 101% | 104% and 100% | 93.3% | 82.24% | 96.7% | 96.7% | 96.09%
